How the values were obtained:
reactive oxygen species = experiment: DCFH-DA oxidative stress detection; format: cell-based; conditions: DCFH-DA assay, Figure S8
Protocol: 2.10 Oxidative stress detection
Cells were cultured in 96-well plates and washed with prewarmed HBSS buffer. A solution of 2',7'-dichlorofluorescein-diacetate (DCFH-DA) (100 μM) was added to the cells, followed by 30 minutes of incubation. […]
dissolved in HBSS buffer for an additional 2 hours. Control cells received vehicle (DMSO), or […]

[1] = system: NFE2L1/TCF11/NRF1, SQSTM1/p62, LC3, NQO1 and HSPA1A/HSP70-1 protein levels; experiment: Immunoblot analysis in HEK293 cells; format: cell-based, human; conditions: for LC3-I protein level, Treatment geometric mean / LC3-II protein level, Treatment geometric mean / HSPA1A protein level, Treatment geometric mean / LC3-total protein level, Treatment geometric mean / NFE2L1 protein level, Treatment geometric mean / NQO1 protein level, Treatment geometric mean / SQSTM1 protein level, Treatment geometric mean: immunoblot quantification; for LC3-I protein level, Treatment geometric mean / LC3-II protein level, Treatment geometric mean / HSPA1A protein level, Treatment geometric mean / LC3-total protein level, Treatment geometric mean / NFE2L1 protein level, Treatment geometric mean / NQO1 protein level, Treatment geometric mean / SQSTM1 protein level, Treatment geometric mean / HSPA1A protein level, geometric mean of ratios / LC3-II protein level, geometric mean of ratios / LC3-total protein level, geometric mean of ratios / NFE2L1 protein level, geometric mean of ratios / NQO1 protein level, geometric mean of ratios / SQSTM1 protein level, geometric mean of ratios: Fig. 2B; for LC3-I protein level, Treatment geometric mean: control geometric mean = 0.24; for LC3-II protein level, Treatment geometric mean: control geometric mean = 0.73; for HSPA1A protein level, Treatment geometric mean / LC3-total protein level, Treatment geometric mean / NFE2L1 protein level, Treatment geometric mean / NQO1 protein level, Treatment geometric mean / SQSTM1 protein level, Treatment geometric mean: control geometric mean = 1; for HSPA1A protein level, geometric mean of ratios / LC3-II protein level, geometric mean of ratios / LC3-total protein level, geometric mean of ratios / NFE2L1 protein level, geometric mean of ratios / NQO1 protein level, geometric mean of ratios / SQSTM1 protein level, geometric mean of ratios: ratio paired t test, treatment vs control
Protocol: Fig. 2 (A) qPCRs of HEK293 cells treated with RUN compounds (7.5 μM) for 16 hours. The extracted RNA was reverse transcribed into cDNA and utilized for RT-qPCR (primers are listed in the SI, Table S1); the mRNA levels of RPLP0 were used for normalization. The experiment was performed in three biological replicates (n = 3). (B) Immunoblot analysis of proteins NFE2L1/TCF11/NRF1, SQSTM1/p62, LC3, NQO1 and HSPA1A/HSP70-1 in HEK293 cells after 16 h treatment with 7.5 μM RUN compounds. The protein levels were quantified by measuring the integrated fluorescence of the corresponding protein bands and normalized to the β-actin load. The full-length (F) and cleaved (C) forms of NFE2L1 were analyzed together. The experiment was performed in four biological replicates (n = 4) except for NFE2L1 (n = 3). (A and B) Results of RUN compounds were compared to the DMSO control using ratio paired t-tests corrected for multiple comparisons with Holm–Šídák's method (α = 0.05). *p < 0.05, **p < 0.01. Detailed results of the analysis are shown in SI Tables S5 and S6.
To confirm NFE2L1-controlled gene expression at the protein level, western blot analysis was performed. HEK293 cells were treated with selected RUN compounds for 16 hours, after which the protein levels were analyzed. […] Similar observations were made with SQSTM1 and LC3. As mentioned earlier, SQSTM1 directly binds to the LC3 region to facilitate the delivery of proteins for autophagic clearance.[62,64,65] Within cells, LC3 undergoes cleavage to form its cytosolic version, LC3-I, which is further converted into its membrane-bound form, LC3-II, which is anchored in autophagosomal membranes.[60,66] Consequently, both SQSTM1 and LC3 are widely regarded as markers of autophagy.[65] […] The increase in the LC3-II form indicates active autophagic processes. […]
HEK293 cells were treated with 7.5 µM RUN compounds for 16 h, then harvested and resuspended in lysis buffer [50 mM HEPES (pH 7.5), 5 mM EDTA, 150 mM NaCl, 2 mM ATP, and 1% Triton]. Cell lysates were subsequently centrifuged at 15,000 rpm and 4°C for 15 minutes, and then a protein concentration was determined using the Pierce BCA Protein Assay Kit (Thermo Fisher Scientific). Cell lysates were boiled for 5 min at 95 °C in a 6xSDS sample buffer [350 mM Tris-HCl (pH 6.8), 350 mM SDS, 30% (v/v) glycerol, 4% β-mercaptoethanol, 180 µM bromophenol blue]. Prepared samples (15 µg of proteins) were separated by SDS-PAGE (10, 12, or 16% Bis-Tris gels; 50 V for 5 min, then 200 V) and transferred onto a 0.45 µm nitrocellulose membrane (Bio-Rad). For LC3 level analysis, the 0.2 µm nitrocellulose membrane (Bio-Rad) was used. Membranes were blocked in Intercept® (TBS) Blocking Buffer (LI-COR Biosciences) for 1 h at room temperature and then incubated with primary antibodies in Intercept® (TBS) Blocking Buffer with 0.1% Tween-20 overnight at 4°C. Used primary antibodies: anti-NFE2L1/TCF11/SKN1/NRF1 monoclonal antibody (Cell Signalling; #8052; anti-NQO1 polyclonal antibody (Sigma-Aldrich; # HPA007308; 1:5.000), anti-LC3 antibody […]
(Sigma-Aldrich; #L8918), anti-p62/SQSTM antibody (Sigma-Aldrich; #P0067), anti-β-actin monoclonal antibody (Sigma-Aldrich; #A5441; 1:10.000). The resulting membranes were washed and incubated with near-infrared fluorophore-conjugated goat anti-mouse IRDye […]
COR Biosciences; #926-32211; 1:15.000) for 1 h at room temperature. Membranes were imaged using Odyssey® M NIR Imaging System (LI-COR Biosciences) and quantified using Image Studio software v. 6.0 (LI-COR Biosciences). The protein levels were quantified by measuring the integrated fluorescence of the corresponding protein bands and normalized to the β-actin loading control. Changes in protein levels after treatment with RUN compounds were analyzed using paired t-tests with correction for multiple comparisons using the Holm-Šídák method (α = 0.05) in GraphPad Prism (v 10.6.1).
2.7 Proteasome activity assay […]

[2] = HEK293, 7.5 μM, 16 h, versus DMSO

SMILES | Geometric mean, Treatment (Control = 1) (reactive oxygen species; 5 μM) | Geometric mean, Treatment (Control = 1) (reactive oxygen species; 25 μM) | LC3-I protein level, Treatment geometric mean [1] | LC3-II protein level, Treatment geometric mean [1] | HSPA1A protein level, Treatment geometric mean [1] | LC3-total protein level, Treatment geometric mean [1] | NFE2L1 protein level, Treatment geometric mean [1] | NQO1 protein level, Treatment geometric mean [1] | SQSTM1 protein level, Treatment geometric mean [1] | HSPA1A protein level, geometric mean of ratios [1] | LC3-II protein level, geometric mean of ratios [1] | LC3-total protein level, geometric mean of ratios [1] | NFE2L1 protein level, geometric mean of ratios [1] | NQO1 protein level, geometric mean of ratios [1] | SQSTM1 protein level, geometric mean of ratios [1] | Total LC3 protein level [1, 2] | NQO1 protein level [1, 2]
COc1ccc(/C=C2\CC(N)C/C(=C\c3ccc(OC)c(OC)c3)C2=O)cc1OC (centres unmarked) [RUN-81] | 0.96 | 0.99 | 0.29 | 1.57 | 3.49 | 1.88 | 6.78 | 3.12 | 3.55 | 3.49 | 2.14 | 1.88 | 6.78 | 3.12 | 3.55 |  | 
COc1ccc(/C=C2\CC(NC(=O)C3CCCC3)C/C(=C\c3ccc(OC)c(OC)c3)C2=O)cc1OC (centres unmarked) [RUN-89] | 1.09 | 1.13 | 0.26 | 1.88 | 4.38 | 2.16 | 13.41 | 3.31 | 4.74 | 4.38 | 2.56 | 2.16 | 13.41 | 3.31 |  | significantly elevate | 
COc1ccc(/C=C2\CC(NC(=O)c3ccccn3)C/C(=C\c3ccc(OC)c(OC)c3)C2=O)cc1OC (centres unmarked) [RUN-94] | 0.97 | 1.00 | 0.38 | 1.72 | 3.12 | 2.14 | 14.37 | 4.16 | 5.55 | 3.12 | 2.35 | 2.14 | 14.37 | 4.16 | 5.55 | significantly elevate | notably boosting

— PMC12606464, “Investigating NFE2L1 activators for targeted protein aggregate clearance: a follow-up study” (RSC Medicinal Chemistry, 2025)
